Measurements published in US20070259087A1, “Antimicrobial Peptides” (Novozymes A/S, priority 2003, published 2007).
Like-named read-outs stand apart in the source and are kept apart here. Where no end group is shown, it is not given here.

Key:
[1] = tested on: Eschericia coli; experiment: Antimicrobial activity by radial diffusion assay (MEC); format: cell-based
Experimental: (§1) A modified version of a previously published protocol has been applied in the detection of antimicrobial activity (Lehrer et al., (1991) Ultra sensitive assays for endogenous antimicrobial polypeptides J Immunol Methods 137: 167-173). Target bacteria (10^6 colony forming units (CFU)) were added to 10 ml of underlay agarose (1% low electro-endosmosis agarose, 0.03% Trypticase soy broth, 10 mM sodium phosphate, pH 7.4, 37 degrees Celsius). Suspension was solidified on an INTEGRID Petri Dish (Becton Dickinson Labware). A 3 mm Gel Puncher was used to make holes in the underlay agarose (Amersham Pharmacia Biotech, Sweden). Samples were added to the holes and incubated at 37 degrees Celsius, 3 hours. An overlay was poured on top and the plate was incubated overnight (LB media, 7.5% Agar). Antimicrobial activity was seen as bacterial clearing zones around the wells. Living cells was counterstained by adding 10 ml, 0.2 mM MTT (3-(4,5-Dimethylthiazol-2-yl)-2,5-diphenyltetrazolium bromide Thiazolyl blue).

[2] = tested on: Bacillus subtilis; experiment: as above; format: cell-based
Experimental: as §1

[3] = tested on: Pseudomonas aeroginosa (ATCC 27853); experiment: Killing kinetics in MHB (viable cells, CFU/ml); format: cell-based; conditions: 4×MIC concentration
Experimental: The rate of killing of Gen2 was determined in MHB using Pseudomonas aeroginosa (ATCC 27853) as the test organism. The bacteria were incubated with Gen2 (at 4×MIC concentration). At different time-points, several dilutions of the preparation were plated and an estimate of viable cells was determined (CFU/ml). The results in Table 2 indicate that Gen2 rapidly kills the bacteria, with a near 3-log reduction in CFU within 30 minutes.

[4] = tested on: E. coli TOP10; format: cell-based; conditions: TOP10, 14 h
Experimental: A range of synthetic antimicrobial polypeptides were expressed in E. coli TOP10 (Invitrogen) using arabinose as inducer, as disclosed in Example 1 of International patent application WO 00/73433 (with minor modifications). […] Briefly, fresh overnight cultures grown in RM medium containing 0.2% glucose and ampicillin (100 μg/ml) were diluted 300-fold into 150 microliter of RM containing 0.2% glycerol and ampicillin (100 μg/ml) and different concentrations of arabinose (0, 0.01% or 0.1%) in a microtiter plate and incubated at 37 degrees Celsius with vigorous shaking. The growth curve was monitored by measuring OD450 using a Bioscreen C Microbiology reader (Thermo Electron Corporation) at intervals of 30 minutes for 14 hours (see Invitrogen protocol of the pBAD/gill A, B and C vectors catalogue nos. V450-01 for buffer and media composition). The percentage of growth inhibition was calculated as the end point OD measurement of each sample divided by the end point OD measurement obtained from cells containing the control vector and multiplied by 100. The formula is the following: [formula] where “blank OD” corresponds to the OD of an empty well.

[5] = tested on: Pseudomonas aeroginosa (ATCC 27853)
Text: The selected test organism was Pseudomonas aeroginosa (ATCC 27853).

For “GLLSKLKKAAKKALKHVL [Gen2, GLLSKLKKAAKKALKHVL]”, the “antimicrobial activity (MEC)” value [1] was under 64 µg/mL, the “antimicrobial activity (MEC)” value [2] was under 64 µg/mL and the viable cells ([3]; 0 hours) was 100.000 CFU/ml. The viable cells ([3]; 0.5 hours) was 115 CFU/ml, the viable cells ([3]; 1.5 hours) was 60 CFU/ml and the viable cells ([3]; 24 hours) was under 20 CFU/ml. The “reduction in CFU” value ([3]; within 30 minutes) was about 3 log, the “Growth inhibition using 0.01% arabinose (%)” value [4] was 51% and the “Growth inhibition using 0.1% arabinose (%)” value [4] was 48%. The MIC ([5]; ATCC 27853) was 15 µg/mL, the MIC ([5]; ATCC 27853, pH 5.5) was 16 µg/mL and the MIC ([5]; ATCC 27853, pH 6.5) was 16 µg/mL.
